Results: patent US20240374624A1, “NOVEL USE OF AT LEAST A HUMAN MILK OLIGOSACCHARIDE” (DSM IP ASSETS B.V., priority 2021, published 2024)

Test system: C. acnes (ATCC reference 11827)
Assay: Cutibacterium acnes Time-Kill Assay
Assay type: cell-based
Conditions: for Log-step reduction (16 h) / Log-step reduction (24 h): reduction compared to initial log cfu/ml of 5.38, n=3; for effect on C. acnes (reduction or growth promotion, in words): summary of the time-kill study
Procedure: Cutibacterium acnes Time-Kill Assay:
Seven different HMOs were screened for their potential anti-microbial activities against C. acnes (ATCC reference 11827). The action of ingredients and combinations thereof is assessed through a miniaturized method performed in liquid media in 96 deepwell plates format. The inhibition of the growth of C. acnes is compared to the same strain growth in corresponding optimal media.
The different ingredients are mixed at two different concentrations in growth medium (final volume 2 mL) in deepwell plates (n=3 for each concentration).
Analysis controls are prepared and used identically to samples: • A growth control of C. acnes in the corresponding culture medium; • A […] consisting of Phenoxyethanol prepared at 0.5% (v/v) directly in the culture medium.
Then, samples are contaminated with C. acnes, inoculum at final concentration of 3.7×10^5 CFU/mL, and incubated at 37° C.±2.5° C. during 24 h. At each defined timepoint (i.e. 30 min, 2 h, 4 h, 16 h and 24 h), a pick-up of the contaminated samples is performed (20 L) after gentle agitation.
To perform the counting, aliquots of the contaminated samples are serially diluted (decimal dilutions) in culture medium in 96-well plates with triphenyltetrazolium and incubated at 37° C.±2.5° C. during 48 h. After 48 h at the optimal growing conditions, the last dilution showing a pink color (triphenyltetrazolium) or turbidity indicates the contamination rate and allow the determination of the corresponding microbial population.
The results of the Time-Kill study are presented in the table below data are shown as log-step reduction compared to initial log cfu/ml of 5.38.

[1] = 0.10 wt.-% ingredient in growth medium
[2] = 0.5 wt.-% ingredient in growth medium

2′-fucosyllactose [2′FL]
Log-step reduction (16 h) [1]: 0.5 log-step
Log-step reduction (24 h) [1]: 0.5 log-step
Log-step reduction (16 h) [2]: 1.5 log-step
Log-step reduction (24 h) [2]: 1.5 log-step
effect on C. acnes (reduction or growth promotion, in words): still provided a reduction of C. acnes

CC(=O)N[C@H]1[C@H](O[C@H]2[C@@H](O)[C@@H](CO)O[C@@H](O[C@H]3[C@H](O)[C@@H](O)C(O)O[C@@H]3CO)[C@@H]2O)O[C@H](CO)[C@@H](O)[C@@H]1O[C@@H]1O[C@H](CO)[C@H](O)[C@H](O)[C@H]1O (stereo partly drawn) [LNT, lacto-N-tetraose]
Log-step reduction (16 h) [1]: 0.5 log-step
Log-step reduction (24 h) [1]: 0.5 log-step
Log-step reduction (16 h) [2]: 0.5 log-step
Log-step reduction (24 h) [2]: 0.5 log-step
effect on C. acnes (reduction or growth promotion, in words): still provided a reduction of C. acnes

CC(=O)N[C@H]1[C@H](O[C@H]2[C@@H](O)[C@@H](CO)O[C@@H](O[C@H]3[C@H](O)[C@@H](O)C(O)O[C@@H]3CO)[C@@H]2O)O[C@H](CO)[C@@H](O[C@@H]2O[C@H](CO)[C@H](O)[C@H](O)[C@H]2O)[C@@H]1O (mixture of isomers) [LNnT (Ref), lacto-N-neotetraose, reference compound]
Log-step reduction (16 h) [1]: −0.4 log-step
Log-step reduction (24 h) [1]: −0.4 log-step
Log-step reduction (16 h) [2]: −0.5 log-step
Log-step reduction (24 h) [2]: −0.5 log-step
effect on C. acnes (reduction or growth promotion, in words): promoted C. acnes growth

3-fucosyllactose [3FL (Ref), reference compound]
Log-step reduction (16 h) [2]: −0.4 log-step
Log-step reduction (24 h) [2]: −0.4 log-step
effect on C. acnes (reduction or growth promotion, in words): promoted C. acnes growth
